Source: ChEMBL document CHEMBL6074641, “Polypharmacological Drug Design Guided by Integrating Phenotypic and Restricted Fragment Docking Strategies” (J Med Chem, 2024)
Active and inactive are the calls of the source. The calls are words filed in the database; no cut-off is given here.

Experiments:
BV-2 = assay: Anti-inflammatory activity against LPS/zVAD treated mouse BV-2 cells assessed as decrease in IL-1beta release at 100 nM by ELISA; assay type: functional, cell-based
Microglia [1] = assay: Anti-necroptosis activity in LPS/zVAD stimulated mouse primary microglia overexpressed with RIPK1 assessed as reversal of translucent cytoplasm by TEM analysis; assay type: functional, cell-based
Microglia [2] = assay: Anti-necroptosis activity in LPS/zVAD stimulated mouse primary microglia overexpressed with ALK assessed as reversal of translucent cytoplasm by TEM analysis; assay type: functional, cell-based
Microglia [3] = assay: Anti-necroptosis activity in LPS/zVAD stimulated mouse primary microglia overexpressed with ALK assessed as reversal of severe membrane disruption by TEM analysis; assay type: functional, cell-based
[4] = Metabolic stability in human liver microsomes assessed as half-life at 1 uM measured upto 60 mins in presence of NADPH and UDPGA by LC-MS/MS analysis; assay type: ADME, Microsome
Cytochrome P450 2B6 = Cytochrome P450 2B6 (Homo sapiens, UniProt P20813); assay: Inhibition of CYP2B6 (unknown origin) incubated for 10 mins in presence of NADPH by LC-MS/MS analysis; assay type: ADME
Chain of Cytochrome P450 2B6 (P20813 whole entry): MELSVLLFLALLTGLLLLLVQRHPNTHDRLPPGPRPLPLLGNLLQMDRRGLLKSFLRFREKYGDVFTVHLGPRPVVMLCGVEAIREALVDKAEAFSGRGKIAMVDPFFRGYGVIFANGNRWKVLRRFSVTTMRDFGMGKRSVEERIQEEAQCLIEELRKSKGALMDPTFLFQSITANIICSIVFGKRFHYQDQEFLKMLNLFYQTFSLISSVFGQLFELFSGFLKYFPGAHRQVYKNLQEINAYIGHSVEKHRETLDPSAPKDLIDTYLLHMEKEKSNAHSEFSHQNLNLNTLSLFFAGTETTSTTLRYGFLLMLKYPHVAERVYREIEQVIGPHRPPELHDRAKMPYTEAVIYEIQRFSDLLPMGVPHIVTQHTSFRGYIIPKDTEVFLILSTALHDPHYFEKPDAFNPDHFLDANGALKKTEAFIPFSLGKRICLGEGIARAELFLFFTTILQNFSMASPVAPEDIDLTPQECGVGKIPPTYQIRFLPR

Mus musculus [5] = assay: Anti-alzheimer activity against 5 month old APP/PS1 transgenic mouse model assessed as […] at 2 mg/kg, po administered 4 times per week for 4 weeks; assay type: functional, organism-based
Mus musculus [6] = assay: Anti-alzheimer activity against 5 month old APP/PS1 transgenic mouse model assessed as decrease in restlessness at 2 to 10 mg/kg, po administered 4 times per week for 4 weeks; assay type: functional, organism-based; details: dose 2-10 mg/kg

half-life at 1 µM [4]: 3.22 h
IC50 (Cytochrome P450 2B6): 5.2 µM
SMILES: Cc1cc(F)cc(Nc2ncc(Nc3ccc(SC(F)(F)F)cc3)cc2C(N)=O)c1
Activity (BV-2): Active
Activity (Microglia [1]): inactive
Activity (Microglia [2]): inactive
Activity (Microglia [3]): inactive
Activity (Mus musculus [5]): Active
Activity (Mus musculus [6]): Active
